Laboratory results as given in paper PMC8900822 (Acta Crystallographica. Section D, Structural Biology, 2022).

Legend:
BpsCAγ = BpsCAγ (Burkholderia pseudomallei, UniProt Q63SQ4); settings: pH 8.3
TweCA = biological target: T1, TweCA (Thalassiosira weissflogii, UniProt Q5U9J1); assay: biochemical
T1 sequence (Q5U9J1 1-281): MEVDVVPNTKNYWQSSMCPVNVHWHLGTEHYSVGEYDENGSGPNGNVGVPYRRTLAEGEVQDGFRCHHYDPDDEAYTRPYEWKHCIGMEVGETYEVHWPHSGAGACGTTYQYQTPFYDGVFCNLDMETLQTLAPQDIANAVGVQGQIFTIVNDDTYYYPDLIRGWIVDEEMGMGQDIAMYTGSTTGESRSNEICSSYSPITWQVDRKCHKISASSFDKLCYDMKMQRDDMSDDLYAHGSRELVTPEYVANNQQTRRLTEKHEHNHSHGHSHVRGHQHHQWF

carbonic anhydrase (CA) = system: carbonic anhydrase (CA); design: method as in Lankas & Peter, 1992; settings: in vivo study, ref Lankas & Peter, 1992; cited from earlier work
hCA II = hCA II (Homo sapiens, UniProt P00918); assay: biochemical
mtCA 03 = biological target: T2, mtCA 03 (Mycobacterium tuberculosis, UniProt P96878); assay: biochemical
T2 sequence (P96878 550-764): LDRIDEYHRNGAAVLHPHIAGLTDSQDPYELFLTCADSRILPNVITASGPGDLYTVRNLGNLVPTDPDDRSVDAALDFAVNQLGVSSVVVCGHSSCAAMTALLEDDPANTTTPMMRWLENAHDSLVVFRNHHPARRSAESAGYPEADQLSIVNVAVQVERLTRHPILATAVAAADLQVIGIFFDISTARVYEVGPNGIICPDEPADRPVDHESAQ

VhCAα = VhCAα (Vibrio cholerae, UniProt Q9KMP6); assay: biochemical
Sequence of VhCAα (Q9KMP6 entry or part of it): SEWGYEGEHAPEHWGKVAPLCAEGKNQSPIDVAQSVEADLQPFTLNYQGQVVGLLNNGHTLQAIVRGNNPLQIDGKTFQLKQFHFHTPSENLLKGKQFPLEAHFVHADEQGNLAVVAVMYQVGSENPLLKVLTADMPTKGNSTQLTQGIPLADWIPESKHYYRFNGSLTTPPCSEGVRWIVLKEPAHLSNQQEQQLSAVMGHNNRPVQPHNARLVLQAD

hCA IX = biological target: T3, hCA IX (Homo sapiens, UniProt Q16790); assay: biochemical
T3 construct: made in house

hCA XII = hCA XII (Homo sapiens, UniProt O43570); assay: biochemical
Sequence of hCA XII (O43570 25-354): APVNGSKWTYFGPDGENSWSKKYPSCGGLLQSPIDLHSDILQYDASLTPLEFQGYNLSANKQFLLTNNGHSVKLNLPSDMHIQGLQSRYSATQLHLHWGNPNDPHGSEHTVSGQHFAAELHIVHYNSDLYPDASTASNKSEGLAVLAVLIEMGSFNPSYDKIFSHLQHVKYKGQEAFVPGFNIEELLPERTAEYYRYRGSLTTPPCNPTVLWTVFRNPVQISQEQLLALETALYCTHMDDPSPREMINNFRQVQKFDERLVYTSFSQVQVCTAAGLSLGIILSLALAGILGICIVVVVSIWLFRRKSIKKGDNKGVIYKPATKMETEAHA

SazCA = biological target: T4, SazCA (Sulfurihydrogenibium azorense, UniProt C1DTU5); assay: biochemical
T4 sequence (C1DTU5 19-254): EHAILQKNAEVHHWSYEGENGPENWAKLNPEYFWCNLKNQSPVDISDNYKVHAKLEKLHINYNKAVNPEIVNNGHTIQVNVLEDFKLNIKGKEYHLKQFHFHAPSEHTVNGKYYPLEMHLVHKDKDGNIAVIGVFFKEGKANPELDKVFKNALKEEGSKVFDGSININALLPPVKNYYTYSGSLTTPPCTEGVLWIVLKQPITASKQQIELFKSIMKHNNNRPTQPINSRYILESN

SmCA = biological target: T5, SmCA (Schistosoma mansoni, UniProt A0A4Y5UX87, S271R); assay: biochemical
T5 sequence (A0A4Y5UX87 21-298 S271R): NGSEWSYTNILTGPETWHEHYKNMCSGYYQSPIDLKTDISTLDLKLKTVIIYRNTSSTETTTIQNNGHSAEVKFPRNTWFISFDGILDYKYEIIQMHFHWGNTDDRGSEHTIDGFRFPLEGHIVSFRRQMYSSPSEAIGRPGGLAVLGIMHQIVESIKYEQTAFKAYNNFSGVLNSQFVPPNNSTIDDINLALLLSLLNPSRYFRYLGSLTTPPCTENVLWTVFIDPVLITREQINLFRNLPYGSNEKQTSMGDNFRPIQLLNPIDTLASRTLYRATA

VhCAβ = VhCAβ (Vibrio cholerae, UniProt A0A086SLX8); assay: biochemical
Sequence of VhCAβ (A0A086SLX8 entry or part of it): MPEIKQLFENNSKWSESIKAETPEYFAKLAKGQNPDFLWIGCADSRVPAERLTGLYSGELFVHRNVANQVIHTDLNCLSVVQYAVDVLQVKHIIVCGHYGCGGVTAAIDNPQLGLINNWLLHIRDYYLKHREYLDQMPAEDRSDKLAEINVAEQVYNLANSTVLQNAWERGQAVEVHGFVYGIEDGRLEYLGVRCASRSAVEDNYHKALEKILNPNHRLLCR

mtCA 02 = mtCA 02 (Mycobacterium tuberculosis, UniProt P9WPJ9); assay: biochemical
Sequence of mtCA 02 (P9WPJ9 whole entry, looked up): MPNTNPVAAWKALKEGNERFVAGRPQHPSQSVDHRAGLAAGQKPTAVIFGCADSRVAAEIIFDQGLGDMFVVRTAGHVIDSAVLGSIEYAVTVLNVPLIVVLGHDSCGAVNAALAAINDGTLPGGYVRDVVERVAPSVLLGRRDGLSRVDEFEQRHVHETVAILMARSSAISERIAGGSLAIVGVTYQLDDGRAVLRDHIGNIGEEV

BpsCAβ = BpsCAβ (Burkholderia pseudomallei, UniProt Q63Y17); settings: pH 8.3
Sequence of BpsCAβ (Q63Y17 1-256): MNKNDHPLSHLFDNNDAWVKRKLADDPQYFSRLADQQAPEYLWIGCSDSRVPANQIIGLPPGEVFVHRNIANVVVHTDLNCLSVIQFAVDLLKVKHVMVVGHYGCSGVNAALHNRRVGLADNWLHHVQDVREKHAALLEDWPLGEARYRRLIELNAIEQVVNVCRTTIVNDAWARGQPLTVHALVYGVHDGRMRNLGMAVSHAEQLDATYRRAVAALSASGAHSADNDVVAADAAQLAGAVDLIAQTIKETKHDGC

hCA I = hCA I (Homo sapiens, UniProt P00915); assay: Stopped-flow CO2-hydration assay, hCA I
Sequence of hCA I (P00915 whole entry): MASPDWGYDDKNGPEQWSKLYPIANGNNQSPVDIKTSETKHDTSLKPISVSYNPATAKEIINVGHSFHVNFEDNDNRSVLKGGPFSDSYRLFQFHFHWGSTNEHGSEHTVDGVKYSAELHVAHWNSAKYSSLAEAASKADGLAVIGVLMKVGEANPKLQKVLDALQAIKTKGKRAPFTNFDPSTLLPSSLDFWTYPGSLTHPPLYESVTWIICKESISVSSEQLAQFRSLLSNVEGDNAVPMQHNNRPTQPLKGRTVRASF

Sequence of BpsCAγ (Q63SQ4 1-174): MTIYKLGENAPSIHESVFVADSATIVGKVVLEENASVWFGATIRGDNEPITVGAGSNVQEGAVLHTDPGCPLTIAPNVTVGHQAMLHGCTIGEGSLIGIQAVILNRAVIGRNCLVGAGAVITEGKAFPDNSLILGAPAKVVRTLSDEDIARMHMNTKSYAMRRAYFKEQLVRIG

## Nc1cc(C(Cl)=C(Cl)Cl)c(S(N)(=O)=O)cc1S(N)(=O)=O [Clorsulon, 4-Amino-6-(1,2,2-trichlorovinyl)benzene-1,3-disulfonamide]
BpsCAγ
  Ki: 2500 nM
TweCA
  Ki: 95.8 nM
Carbonic anhydrase (CA)
  carbonic anhydrase (CA) inhibitory activity in rats: weak
hCA II
  Ki: 59.1 nM
mtCA 03
  Ki: 828 nM
VhCAα
  Ki: 292 nM
hCA IX
  Ki: 138 nM
hCA XII
  Ki: 78 nM
SazCA
  Ki: 7.7 nM
SmCA
  Ki: 225 nM
VhCAβ
  Ki: 906 nM
mtCA 02
  Ki: 2.9 nM
BpsCAβ
  Ki: 223 nM
hCA I
  Ki: 4520 nM
